In PMC11357990, “A first-in-class selective inhibitor of EGFR and PI3K offers a single-molecule approach to targeting adaptive resistance” (Nature Cancer, 2024) one finds IC50 data, which are given here for 4 compounds.

For one experiment, the target named is T1, HER2 (Homo sapiens, UniProt P04626).
T1 construct: gene ERBB2; Km ATP
In words: biochemical. On the set-up: Purified kinase inhibition, Z'-LYTE (HER, mTOR, DNA-PK) or Adapta (PI3K), ATP at Km apparent. How it is done: (§1) IC50 values were determined at a concentration of ATP corresponding to the Km apparent for that kinase.

For the next experiment, the target named is T2, HER4 (Homo sapiens, UniProt Q15303).
T2 construct: gene ERBB4; Km ATP
The experiment can be described thus: biochemical. Also noted: Purified kinase inhibition, Z'-LYTE (HER, mTOR, DNA-PK) or Adapta (PI3K), ATP at Km apparent. As for the experimental part:
as §1

The target of another experiment is T3, mTOR (Homo sapiens, UniProt P42345).
T3 construct: Km ATP
The experiment can be described thus: biochemical. On the set-up: Purified kinase inhibition, Z'-LYTE (HER, mTOR, DNA-PK) or Adapta (PI3K), ATP at Km apparent. As for the experimental part: as §1

The next experiment concerns the target EGFR (Homo sapiens, UniProt P00533). In words: biochemical. On the set-up: Km ATP; Purified kinase inhibition, Z'-LYTE (HER, mTOR, DNA-PK) or Adapta (PI3K), ATP at Km apparent. How it is done:
as §1

A further experiment addresses T4, PI3Kβ (Homo sapiens, UniProt P42338).
T4 construct: gene PIK3CB; Km ATP
The experiment can be described thus: biochemical. On the set-up: Purified kinase inhibition, Z'-LYTE (HER, mTOR, DNA-PK) or Adapta (PI3K), ATP at Km apparent. How it is done: as §1

The target in another experiment is T5, PI3Kδ (Homo sapiens, UniProt O00329).
T5 construct: gene PIK3CD; Km ATP
In words: biochemical. Also noted: Purified kinase inhibition, Z'-LYTE (HER, mTOR, DNA-PK) or Adapta (PI3K), ATP at Km apparent. How it is done:
as §1

The target in another experiment is PI3Kα (Homo sapiens, UniProt P42336). In words: biochemical. On the set-up: gene PIK3CA; Km ATP; Purified kinase inhibition, Z'-LYTE (HER, mTOR, DNA-PK) or Adapta (PI3K), ATP at Km apparent. As for the experimental part: as §1
The target in experiment [1] is T6, PI3Kγ (Homo sapiens, UniProt P48736). In words: biochemical. On the set-up: gene PIK3CG; Km ATP; Purified kinase inhibition, Z'-LYTE (HER, mTOR, DNA-PK) or Adapta (PI3K), ATP at Km apparent. As for the experimental part: as §1
In experiment [2] the target is T6, PI3Kγ. In words: biochemical kinase assay at ATP Km apparent. Also noted: gene PIK3CG.

T1 sequence (P04626 whole entry): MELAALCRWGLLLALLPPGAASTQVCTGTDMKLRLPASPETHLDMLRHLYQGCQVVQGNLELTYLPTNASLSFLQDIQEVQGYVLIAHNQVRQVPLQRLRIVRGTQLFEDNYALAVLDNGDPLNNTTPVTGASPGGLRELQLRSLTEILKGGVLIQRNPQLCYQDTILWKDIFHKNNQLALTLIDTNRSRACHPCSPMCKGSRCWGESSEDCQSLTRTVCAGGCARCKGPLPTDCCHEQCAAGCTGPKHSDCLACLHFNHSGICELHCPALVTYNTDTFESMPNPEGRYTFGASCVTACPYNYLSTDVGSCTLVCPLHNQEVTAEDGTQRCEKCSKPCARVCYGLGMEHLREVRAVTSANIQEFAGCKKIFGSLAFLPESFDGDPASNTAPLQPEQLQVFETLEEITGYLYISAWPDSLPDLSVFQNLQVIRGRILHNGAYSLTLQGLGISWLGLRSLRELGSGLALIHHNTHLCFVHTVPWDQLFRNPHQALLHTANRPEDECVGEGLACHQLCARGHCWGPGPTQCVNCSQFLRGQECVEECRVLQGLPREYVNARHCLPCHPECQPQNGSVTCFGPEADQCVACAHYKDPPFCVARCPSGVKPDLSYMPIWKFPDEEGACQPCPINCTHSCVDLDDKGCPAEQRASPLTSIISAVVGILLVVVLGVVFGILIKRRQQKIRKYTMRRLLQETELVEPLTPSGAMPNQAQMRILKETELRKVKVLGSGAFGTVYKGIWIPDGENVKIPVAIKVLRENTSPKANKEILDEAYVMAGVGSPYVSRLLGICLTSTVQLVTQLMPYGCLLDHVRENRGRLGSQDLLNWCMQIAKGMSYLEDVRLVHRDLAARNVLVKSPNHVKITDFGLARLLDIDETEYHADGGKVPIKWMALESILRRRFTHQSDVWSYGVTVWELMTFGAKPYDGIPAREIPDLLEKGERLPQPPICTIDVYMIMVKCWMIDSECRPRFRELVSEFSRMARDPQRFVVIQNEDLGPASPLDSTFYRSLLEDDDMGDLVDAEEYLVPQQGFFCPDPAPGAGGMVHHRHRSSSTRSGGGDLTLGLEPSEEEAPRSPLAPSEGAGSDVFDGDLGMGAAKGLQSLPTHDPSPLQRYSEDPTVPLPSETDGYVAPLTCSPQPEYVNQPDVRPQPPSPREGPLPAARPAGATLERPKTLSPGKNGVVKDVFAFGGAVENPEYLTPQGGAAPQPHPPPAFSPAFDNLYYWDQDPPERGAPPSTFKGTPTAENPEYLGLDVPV
T2 sequence (Q15303 whole entry): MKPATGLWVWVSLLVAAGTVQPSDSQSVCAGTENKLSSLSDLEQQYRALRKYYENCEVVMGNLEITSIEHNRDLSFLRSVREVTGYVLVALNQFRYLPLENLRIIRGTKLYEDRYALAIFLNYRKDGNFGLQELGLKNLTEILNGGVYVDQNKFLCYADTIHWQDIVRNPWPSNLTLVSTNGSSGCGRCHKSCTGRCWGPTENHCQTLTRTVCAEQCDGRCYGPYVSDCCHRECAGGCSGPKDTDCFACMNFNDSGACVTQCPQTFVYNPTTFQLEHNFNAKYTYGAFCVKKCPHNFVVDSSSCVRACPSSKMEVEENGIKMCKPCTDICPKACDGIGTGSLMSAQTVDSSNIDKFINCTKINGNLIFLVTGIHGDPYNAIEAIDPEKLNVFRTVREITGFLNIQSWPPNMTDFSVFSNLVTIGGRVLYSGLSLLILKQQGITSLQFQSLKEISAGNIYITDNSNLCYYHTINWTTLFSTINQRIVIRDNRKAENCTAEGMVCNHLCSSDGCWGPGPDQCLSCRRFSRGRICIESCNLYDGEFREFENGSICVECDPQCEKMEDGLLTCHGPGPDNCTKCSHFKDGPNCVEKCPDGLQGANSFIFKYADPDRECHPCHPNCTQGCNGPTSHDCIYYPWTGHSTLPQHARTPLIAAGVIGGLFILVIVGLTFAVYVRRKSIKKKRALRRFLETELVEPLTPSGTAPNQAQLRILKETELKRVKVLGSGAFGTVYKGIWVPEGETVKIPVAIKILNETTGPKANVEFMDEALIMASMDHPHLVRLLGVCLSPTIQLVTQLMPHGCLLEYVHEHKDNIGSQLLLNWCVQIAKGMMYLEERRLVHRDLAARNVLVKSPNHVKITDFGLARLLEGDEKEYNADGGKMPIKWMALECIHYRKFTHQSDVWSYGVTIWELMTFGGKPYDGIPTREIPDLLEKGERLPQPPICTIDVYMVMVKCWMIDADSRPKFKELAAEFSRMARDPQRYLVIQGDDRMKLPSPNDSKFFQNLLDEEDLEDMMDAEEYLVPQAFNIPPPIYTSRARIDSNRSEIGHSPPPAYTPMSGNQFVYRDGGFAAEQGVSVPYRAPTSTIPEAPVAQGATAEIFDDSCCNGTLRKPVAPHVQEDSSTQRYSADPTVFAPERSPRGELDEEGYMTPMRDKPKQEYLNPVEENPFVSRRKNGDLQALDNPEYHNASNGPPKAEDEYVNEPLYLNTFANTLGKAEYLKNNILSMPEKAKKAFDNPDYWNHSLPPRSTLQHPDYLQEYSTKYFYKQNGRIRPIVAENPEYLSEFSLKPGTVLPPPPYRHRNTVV
EGFR, sequence (P00533 whole entry): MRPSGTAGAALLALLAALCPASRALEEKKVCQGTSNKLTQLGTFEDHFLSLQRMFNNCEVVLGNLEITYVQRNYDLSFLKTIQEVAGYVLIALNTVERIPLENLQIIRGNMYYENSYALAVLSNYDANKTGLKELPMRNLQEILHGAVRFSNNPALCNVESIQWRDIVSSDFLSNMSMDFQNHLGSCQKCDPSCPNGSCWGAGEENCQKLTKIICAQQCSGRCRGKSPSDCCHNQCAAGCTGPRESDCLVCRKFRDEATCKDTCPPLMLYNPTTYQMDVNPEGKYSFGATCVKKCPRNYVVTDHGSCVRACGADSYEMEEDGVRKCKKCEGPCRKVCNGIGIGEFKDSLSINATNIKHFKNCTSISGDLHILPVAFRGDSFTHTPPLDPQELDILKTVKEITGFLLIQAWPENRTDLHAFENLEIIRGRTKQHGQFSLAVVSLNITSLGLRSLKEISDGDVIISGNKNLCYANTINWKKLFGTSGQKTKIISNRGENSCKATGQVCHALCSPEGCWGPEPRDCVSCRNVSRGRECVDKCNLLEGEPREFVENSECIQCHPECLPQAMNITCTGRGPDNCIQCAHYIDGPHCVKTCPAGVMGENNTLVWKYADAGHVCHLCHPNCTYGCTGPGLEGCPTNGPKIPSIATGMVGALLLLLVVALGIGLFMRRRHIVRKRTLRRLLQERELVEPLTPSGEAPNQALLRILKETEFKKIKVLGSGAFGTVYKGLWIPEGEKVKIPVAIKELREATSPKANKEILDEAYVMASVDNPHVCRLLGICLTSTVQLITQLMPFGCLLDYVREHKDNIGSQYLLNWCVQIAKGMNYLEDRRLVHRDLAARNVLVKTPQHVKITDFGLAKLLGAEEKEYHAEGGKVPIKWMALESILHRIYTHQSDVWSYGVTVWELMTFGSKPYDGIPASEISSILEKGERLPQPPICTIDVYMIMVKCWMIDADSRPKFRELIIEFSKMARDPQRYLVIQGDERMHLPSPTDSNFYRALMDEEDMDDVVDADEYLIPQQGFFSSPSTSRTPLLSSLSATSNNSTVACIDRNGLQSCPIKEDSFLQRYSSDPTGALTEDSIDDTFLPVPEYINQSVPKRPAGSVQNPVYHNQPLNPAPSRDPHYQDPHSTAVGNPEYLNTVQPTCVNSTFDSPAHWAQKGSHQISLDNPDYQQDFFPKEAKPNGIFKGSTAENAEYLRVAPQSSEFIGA
T6 sequence (P48736 whole entry): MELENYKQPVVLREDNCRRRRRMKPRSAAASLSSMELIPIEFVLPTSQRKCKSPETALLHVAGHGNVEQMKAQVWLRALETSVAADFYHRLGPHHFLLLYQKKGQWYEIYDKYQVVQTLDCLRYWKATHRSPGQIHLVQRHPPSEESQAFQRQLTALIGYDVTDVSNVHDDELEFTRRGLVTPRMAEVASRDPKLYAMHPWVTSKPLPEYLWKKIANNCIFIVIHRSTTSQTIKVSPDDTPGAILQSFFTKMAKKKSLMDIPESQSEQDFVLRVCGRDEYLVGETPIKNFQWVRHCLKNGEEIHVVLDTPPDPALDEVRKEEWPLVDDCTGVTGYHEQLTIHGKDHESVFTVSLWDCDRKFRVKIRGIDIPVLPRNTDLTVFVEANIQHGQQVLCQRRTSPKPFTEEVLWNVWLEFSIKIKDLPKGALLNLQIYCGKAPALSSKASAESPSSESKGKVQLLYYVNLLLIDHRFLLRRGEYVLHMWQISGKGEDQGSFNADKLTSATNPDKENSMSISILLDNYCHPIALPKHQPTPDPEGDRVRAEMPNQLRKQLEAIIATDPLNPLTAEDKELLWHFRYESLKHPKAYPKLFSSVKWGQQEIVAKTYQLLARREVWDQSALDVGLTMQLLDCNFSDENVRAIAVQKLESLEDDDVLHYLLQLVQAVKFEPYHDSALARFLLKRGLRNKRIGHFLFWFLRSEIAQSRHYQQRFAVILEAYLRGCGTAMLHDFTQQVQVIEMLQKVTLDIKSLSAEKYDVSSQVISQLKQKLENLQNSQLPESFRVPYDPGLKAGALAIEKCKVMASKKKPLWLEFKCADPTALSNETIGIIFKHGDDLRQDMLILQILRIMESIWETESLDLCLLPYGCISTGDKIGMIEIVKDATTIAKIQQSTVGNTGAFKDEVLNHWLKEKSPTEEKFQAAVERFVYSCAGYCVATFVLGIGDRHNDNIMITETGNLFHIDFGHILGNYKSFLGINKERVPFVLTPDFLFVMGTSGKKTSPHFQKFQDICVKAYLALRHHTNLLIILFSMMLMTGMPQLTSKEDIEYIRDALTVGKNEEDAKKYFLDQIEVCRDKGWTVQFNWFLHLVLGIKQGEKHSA

In the case of `Cc1nc(NC(=O)N2CCC[C@H]2C(N)=O)sc1-c1ccnc(C(C)(C)C(F)(F)F)c1` [Alpelisib], the IC50 at HER2 is above 10 µM; on HER4, above 10 µM; on mTOR, 2940 nM; at EGFR, above 10 µM.

For `COc1c(OCCCN2CCOCC2)ccc2c1N=C(NC(=O)c1cnc(N)nc1)N1CCN=C21` [Copanlisib], the IC50 on HER2 is above 10 µM; at HER4, above 10 µM; on mTOR, 18.8 nM; at EGFR, above 10 µM.

`CCN1CCN(Cc2ccc(-c3cc4c(N[C@H](C)c5ccccc5)ncnc4[nH]3)cc2)CC1` [NVP-AEE788]: the IC50 is 0.0261 µM at HER2; 0.221 µM on HER4; above 10 µM at PI3Kβ; above 10 µM on PI3Kδ; above 10000 nM on mTOR; above 10 µM on PI3Kα. Besides, the IC50 on PI3Kγ [1] was above 10 µM.

As for `COc1ncc(-c2ccc3nccc(-c4ccnnc4)c3c2)cc1NS(=O)(=O)c1ccc(F)cc1F` [Omipalisib], the IC50 is above 10 µM at HER2, above 10 µM at HER4, 0.62 nM on PI3Kγ [2] and above 10 µM at EGFR.

In general, IC50 refers to the concentration that gives 50% inhibition.
